Reference: patent US20260335282A1, “NOVEL 3-ARYLIDENE-2-INDOLINONE DERIVATIVES FOR THERAPEUTIC USE” (ISTANBUL UNIVERSITESI REKTORLUGU, priority 2022, published 2026)
Where two headings read alike, the source gives them in different places.

How the values were obtained:
MCF-10F/Beas2b cells = test: MTT cytotoxicity, healthy cells MCF-10F/Beas2b; format: cell-based, human; details: for IC50: Homo sapiens, MTT; for Selectivite Index (SI), MCF-10F/Beas2b (Table 1): MCF-10F/Beas2b vs breast or kidney cancer cells, cancer line not given
Description: (§1) The cytotoxicity, general tyrosine kinase inhibitory effects and cell death (apoptosis/necrosis) assays of 1-benzyl-3-(1H-indol-3-ylmethylidene)-1,3-dihydro-2H-indol-2-one derivatives (Formula 5) of the present invention are studied by the following methods. […] HUVEC (human umbilical vein endothelial cell), MCF-10F (human breast epithelial cell) and Beas2b (human lung bronchial epithelial cell) cell lines have been used as healthy control cells in MTT experiments.
(§2) Beas2b (human lung bronchiole epithelial cell) and HEK293 (renal tubule epithelium) cells used as normal cell lines were cultured in RPMI medium, and HUVEC (human umbilical cord endothelial cells) and MCF-10F (human breast epithelial cell) cells are cultured in DMEM medium containing 100 µg/ml penicillin/streptomycin. The cells, which covered 70% of the culture flask, are washed with phosphate buffer and then removed from the surface of the flask by application of trypsin-ethylenediamine tetraacetic acid (Trypsin-EDTA; 0.25%) solution, passaged, counted and seeded on appropriate plates before each experiment. Cells are treated with a total of 45 2-indolinone compounds (5) at concentrations of 0.1, 1, 5 and 10 μM. Stock compounds are prepared in 1 ml dimethylsulfoxide (DMSO) and 4 different dilutions were prepared with medium and performed to the cells. Control group cells are treated with DMSO at a similar concentration to the experimental groups.
(§3) MTT (3-(4,5-dimethylthiazol-2-yl)-2,5-diphenyl-2H-tetrazolium bromide) colorimetric assay provides quantitation of viable cells with ongoing mitochondrial activity in culture medium. According to the standard procedure in cell culture conditions, cells are maintained in RPMI-1640 and DMEM culture media containing 10% FBS and 1% penicillin/streptomycin. The trypan blue test is used for cell counts.
(§4) The effects of 45 2-indolinone compounds (5) on cell viability in all cancer cell lines are investigated by MTT assay. Cells are seeded in a 96-well flat bottom plate with 5000 cells in each well and 2-indolinone compounds (5) at concentrations of 0.1, 1, 5 and 10 μM are performed to the cells the next day. After 48 and/or 72 hours following treatment with 2-indolinone compounds, 50 μl of the supernatant is slowly discarded (as it was acid medium) and MTT at a concentration of 5 mg/ml is added to each well in a volume of 10 μl. After incubation for 4 hours, the formazan crystals formed in the wells are dissolved by adding 100 μl DMSO and the optical density is read at 570 nm test wavelength and 630 nm reference wavelength. Cell viability is expressed as % cell viability by comparing the absorbance of control and test wells. IC50 value is calculated from the dose-response curves prepared for each compound. In addition, the possible DMSO effect is eliminated by preparing negative control wells compatible with the amount of DMSO contained in the compounds. To understand the reaction of the compounds with MTT, cell-free (MTT+compounds) negative controls are prepared at the concentrations used (Mosmann, 1983). […] The absorbance values obtained are compared to the control and statistically evaluated by unpaired t-test using “Graphpad Prism 5.04” software. “P<0.05” is accepted as significant. When evaluating cytotoxic effects, the present inventors aim for the inventive compounds to be effective in cancer cells and ineffective in healthy cells. The inventive compounds have also been compared with sunitinib, one of the reference chemotherapy drugs currently used in treatment.
(§5) Among the compounds of the present invention, those that killed cancer cells by at least 50% (p<0.05) are selected and tested whether a 10-fold concentration of the M concentration at the IC50 value is toxic to normal healthy cells.

MCF-7 cells = test: MTT cytotoxicity, breast cancer cells MCF-7; format: cell-based, human; details: for IC50: MTT
Description: as §1, §2, §3, §4, §5

HT-29 cells = test: MTT cytotoxicity, colon cancer cells HT-29; format: cell-based, human; details: MTT
Description: as §1, §2, §3, §4

MIAPaCa-2 cells = test: MTT cytotoxicity, pancreas cancer cells MIAPaCa-2; format: cell-based, human
Description: as §1, §2, §3, §4

CAKI-1 cells = test: MTT cytotoxicity, kidney cancer cells CAKI-1; format: cell-based, human
Description: as §1, §2, §3, §4, §5

HUVEC cells = test: MTT cytotoxicity, healthy cells HUVEC; format: cell-based, human; details: for IC50: MTT; for Selectivite Index (SI), HUVEC (Table 1): HUVEC vs breast or kidney cancer cells, cancer line not given
Description: as §1, §2, §3, §4, §5

A549 cells = test: MTT cytotoxicity, lung cancer cells A549; format: cell-based, human
Description: as §1, §2, §3, §4, §5

MDA-MB-231 cells = test: MTT cytotoxicity, breast cancer cells MDA-MB-231; format: cell-based, human; details: for IC50: MTT, no * mark (incubation time not given)
Description: as §1, §2, §3, §4, §5

HCT-116 cells = test: MTT cytotoxicity, colon cancer cells HCT-116; format: cell-based, human
Description: as §1, §2, §3, §4

A498 cells = test: MTT cytotoxicity, kidney cancer cells A498; format: cell-based, human; details: MTT
Description: as §1, §2, §3, §4, §5

human cancer cells = test: MTT cell viability, human cancer cells overall; format: cell-based; details: cell line as discussed at the place
Description: as §1, §2, §3
The effects of 45 2-indolinone compounds (5) on cell viability in all cancer cell lines are investigated by MTT assay. Cells are seeded in a 96-well flat bottom plate with 5000 cells in each well and 2-indolinone compounds (5) at concentrations of 0.1, 1, 5 and 10 μM are performed to the cells the next day. After 48 and/or 72 hours following treatment with 2-indolinone compounds, 50 μl of the supernatant is slowly discarded (as it was acid medium) and MTT at a concentration of 5 mg/ml is added to each well in a volume of 10 μl. After incubation for 4 hours, the formazan crystals formed in the wells are dissolved by adding 100 μl DMSO and the optical density is read at 570 nm test wavelength and 630 nm reference wavelength. Cell viability is expressed as % cell viability by comparing the absorbance of control and test wells. IC50 value is calculated from the dose-response curves prepared for each compound. In addition, the possible DMSO effect is eliminated by preparing negative control wells compatible with the amount of DMSO contained in the compounds. To understand the reaction of the compounds with MTT, cell-free (MTT+compounds) negative controls are prepared at the concentrations used (Mosmann, 1983). […] The absorbance values obtained are compared to the control and statistically evaluated by unpaired t-test using “Graphpad Prism 5.04” software. “P<0.05” is accepted as significant. When evaluating cytotoxic effects, the present inventors aim for the inventive compounds to be effective in cancer cells and ineffective in healthy cells. […]

[1] = *: effective 72 hours after incubation
[2] = no * mark (incubation time not specified)
[3] = MTT, no * mark (incubation time not specified)
[4] = read-out: IC50, MDA-MB-231 (breast)

SMILES | potency/selectivity compared with sunitinib malate (human cancer cells) | Selectivite Index (SI), MCF-10F/Beas2b (Table 1) (MCF-10F/Beas2b cells) | IC50 (MCF-7 cells; [2]) [nM] | IC50 (HT-29 cells; [2]) [nM] | IC50 (MIAPaCa-2 cells; [3]) [nM] | IC50 (CAKI-1 cells; [2]) [nM] | Selectivite Index (SI), HUVEC (Table 1) (HUVEC cells) | IC50 (A549 cells; [2]) [nM] | IC50 (MDA-MB-231 cells; [4]) [nM] | IC50 (HCT-116 cells; [2]) [nM] | IC50 (A498 cells; [2]) [nM] | other results
O=C1/C(=C\c2c[nH]c3ccccc23)c2cc(Cl)ccc2N1Cc1ccc(F)cc1 [17C] | more potent than sunitinib malate |  |  |  |  |  |  |  |  |  |  | IC50 (MCF-10F/Beas2b cells; [1]): 2660 nM; IC50 (MCF-10F/Beas2b cells; no * mark (incubation time not given)): 2660 nM; cytotoxicity in healthy cells (MCF-10F/Beas2b cells; healthy cells): high in healthy cells; IC50 (MCF-7 cells; Homo sapiens, MCF7, *: effective 72 hours after incubation): 4760 nM; IC50 (HT-29 cells; Homo sapiens, HT-29, no * mark (incubation time not given)): 2070 nM; IC50 (MIAPaCa-2 cells; Homo sapiens, MIA PaCa-2, MTT, no * mark (incubation time not given)): 1320 nM; IC50 (CAKI-1 cells; Homo sapiens, CAKI-1, *: effective 72 hours after incubation): 4620 nM; IC50 (HUVEC cells; Homo sapiens, HUVEC, no * mark (incubation time not given)): 1240 nM; IC50 (A549 cells; Homo sapiens, A549, no * mark (incubation time not given)): 1110 nM; IC50 (MDA-MB-231 cells; Homo sapiens, MDA-MB-231, read-out: IC50, MDA-MB-231 (breast)): > 10000 nM; IC50 (HCT-116 cells; Homo sapiens, HCT-116, no * mark (incubation time not given)): 930 nM; IC50 (A498 cells; Homo sapiens, A498, 72 h, *: effective 72 hours after incubation): 770 nM
O=C1/C(=C\c2c[nH]c3ccccc23)c2cccc(Cl)c2N1Cc1ccccc1 [22C] | much more potent and have higher SI values than the reference compound sunitinib malate | > 17.54 | 570 | > 10000 | > 10000 | 2490 | > 17.54 | > 10000 | 8400 | > 10000 | > 10000 | selectivity index (SI) (MCF-7 cells; MCF-10F vs MCF-7): > 17; IC50 (HUVEC cells; [2]): > 10000 nM
Cc1cccc(CN2C(=O)/C(=C\c3c[nH]c4ccccc34)c3cccc(Cl)c32)c1 [27C] | much more potent and have higher SI values than the reference compound sunitinib malate | > 12.34 | 3670 | > 10000 | > 10000 | > 10000 | 1.28 | > 10000 | 810 | > 10000 | 2400 | IC50 (HUVEC cells; [1]): 1040 nM; selectivity index (SI) (MDA-MB-231 cells; MCF-10F vs MDA-MB-231): > 12
